Here are results for 25 compounds from patent publication US12370192B2, “Azole-fused pyridazin-3(2H)-one derivatives” (TAKEDA PHARMACEUTICAL COMPANY LIMITED, priority 2019, dated 2025).

For experiment [1], the target named is T1, human GPR139 receptor (Homo sapiens, UniProt Q6DWJ6).
T1 construct: expressed in transfected cells; host or cells: T-REx-CHO (Thermo Fisher Scientific), doxycycline-induced
T1 sequence (Q6DWJ6 1-353): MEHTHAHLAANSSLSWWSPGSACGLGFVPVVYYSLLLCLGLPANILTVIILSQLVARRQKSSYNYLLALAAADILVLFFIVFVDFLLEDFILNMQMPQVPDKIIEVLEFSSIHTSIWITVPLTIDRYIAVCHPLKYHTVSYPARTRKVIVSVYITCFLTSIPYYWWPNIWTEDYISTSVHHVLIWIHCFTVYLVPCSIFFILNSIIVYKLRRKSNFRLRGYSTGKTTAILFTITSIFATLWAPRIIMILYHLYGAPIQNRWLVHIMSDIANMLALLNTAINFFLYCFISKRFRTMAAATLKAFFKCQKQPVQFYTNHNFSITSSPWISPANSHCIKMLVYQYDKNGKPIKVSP
Nature of the experiment: Measurement of GPR139 Activation Via Calcium Signaling (FLIPR, T-REx-CHO cells). Type of experiment: cell-based. As to conditions: T-REx-CHO cells stably expressing human GPR139, 11-point dose response, 10 μM maximum concentration, read-out: GPR139 Potency (pEC50) (converted). The method, boiled down: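 Calcium flux read by FLIPR for 1 min after adding compounds (11 concentrations, maximum 10 μM) to doxycycline-induced (2 μg/mL, 17 h) T-REx-CHO cells expressing human GPR139. Cells dye-loaded 40 min at 37 °C in HBSS, 1 mM HEPES pH 7.4 with probenecid; activation reported as pEC50 from four-parameter logistic fit.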

Experiment [2] has as its target T1, human GPR139 receptor. Nature of the experiment: GPR139 Competition Binding (membrane-based, tritium-labeled ligand). As to conditions: T-REx-CHO membranes with human GPR139; 6.5 nM tritium-labeled ligand; 11-point curve, 30 μM maximum concentration; read-out: GPR139 Binding Affinity (pKi) (converted). The gist of the method:
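Membranes came from doxycycline-induced T-REx-CHO cells expressing human GPR139. They were incubated 20 min at room temperature with 6.5 nM tritiated ligand and compound (11 points, top 30 μM) in HEPES pH 7.3 buffer with MgCl2/CaCl2. Filter-bound counts gave Ki by four-parameter fit, reported as pKi.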

`Cc1ccc([C@H](C)NC(=O)Cn2nc(C)c3c(cnn3C)c2=O)cc1` [Example 74, (S)-2-(1,7-dimethyl-4-oxo-1,4-dihydro-5H-pyrazolo[3,4-d]pyridazin-5-yl)-N-(1-(p-tolyl)ethyl)acetamide]: the EC50 on human GPR139 receptor [1] was 93.3 nM. In addition, the Ki at human GPR139 receptor [2] is 2450 nM.
For `Cc1nn(CC(=O)N[C@@H](C)c2ccc(C(F)(F)F)cc2)c(=O)c2cnn(C(C)C)c12` [Example 75, (S)-2-(1-isopropyl-7-methyl-4-oxo-1,4-dihydro-5H-pyrazolo[3,4-d]pyridazin-5-yl)-N-(1-(4-(trifluoromethyl)phenyl)ethyl)acetamide], in that order: 617 nM and 2340 nM.
For `Cc1ccc([C@H](C)NC(=O)Cn2nc(C)c3c(cnn3C3CC3)c2=O)cc1` [Example 80, (S)-2-(1-cyclopropyl-7-methyl-4-oxo-1,4-dihydro-5H-pyrazolo[3,4-d]pyridazin-5-yl)-N-(1-(p-tolyl)ethyl)acetamide], in that order: 251 nM and 1660 nM.
For `Cc1ccc([C@H](C)NC(=O)Cn2nc(C)c3c(cnn3C3CC3)c2=O)c(F)c1` [Example 81, (S)-2-(1-cyclopropyl-7-methyl-4-oxo-1,4-dihydro-5H-pyrazolo[3,4-d]pyridazin-5-yl)-N-(1-(2-fluoro-4-methylphenyl)ethyl)acetamide], in that order: 145 nM and 331 nM.
Consider `Cc1ccc([C@H](C)NC(=O)Cn2nc(C)c3c(cnn3C)c2=O)c(F)c1` [Example 82], for which the EC50 on human GPR139 receptor [1] was 41.7 nM. Also, on human GPR139 receptor [2], the Ki is 550 nM.
For `Cc1nn(C2CC2)c2c(=O)n(CC(=O)N3CCCC3c3ccc(Cl)cc3)ncc12` (centres unmarked) [Example 85, 6-(2-(2-(4-chlorophenyl)pyrrolidin-1-yl)-2-oxoethyl)-1-cyclopropyl-3-methyl-1,6-dihydro-7H-pyrazolo[3,4-d]pyridazin-7-one], in that order: 741 nM and 55 nM.
For `Cc1ccc([C@H](C)NC(=O)Cn2ncc3c(cnn3C(C)C)c2=O)c(F)c1` [Example 88, (S)—N-(1-(2-fluoro-4-methylphenyl)ethyl)-2-(1-isopropyl-4-oxo-1,4-dihydro-5H-pyrazolo[3,4-d]pyridazin-5-yl)acetamide], in that order: 77.6 nM and 676 nM.
In the case of `Cc1ccc([C@H](C)NC(=O)Cn2ncc3c(cnn3C(C)C)c2=O)cc1` [Example 89, (S)-2-(1-isopropyl-4-oxo-1,4-dihydro-5H-pyrazolo[3,4-d]pyridazin-5-yl)-N-(1-(p-tolyl)ethyl)acetamide], the EC50 on human GPR139 receptor [1] was 44.7 nM. Also, the Ki on human GPR139 receptor [2] is 2190 nM.
For `Cc1ccc([C@H](C)NC(=O)Cn2ncc3c(c(C)nn3C(C)C)c2=O)c(F)c1` [Example 92, (S)—N-(1-(2-fluoro-4-methylphenyl)ethyl)-2-(1-isopropyl-3-methyl-4-oxo-1,4-dihydro-5H-pyrazolo[3,4-d]pyridazin-5-yl)acetamide], in that order: 57.5 nM and 100 nM.
For `Cc1nn(C(C)C)c2cnn(CC(=O)N[C@@H](C)c3ccc(OC(F)(F)F)cc3)c(=O)c12` [Example 93, (S)-2-(1-isopropyl-3-methyl-4-oxo-1,4-dihydro-5H-pyrazolo[3,4-d]pyridazin-5-yl)-N-(1-(4-(trifluoromethoxy)phenyl)ethyl)acetamide], in that order: 234 nM and 389 nM.
On to `Cc1nn(C(C)C)c2cnn(CC(=O)N[C@@H](C)c3ccc(C(F)(F)F)cc3)c(=O)c12` [Example 94, (S)-2-(1-isopropyl-3-methyl-4-oxo-1,4-dihydro-5H-pyrazolo[3,4-d]pyridazin-5-yl)-N-(1-(4-(trifluoromethyl)phenyl)ethyl)acetamide], for which, at human GPR139 receptor [1], the EC50 is 107 nM. Moreover, the Ki on human GPR139 receptor [2] is 309 nM.
For `Cc1ccc([C@H](C)NC(=O)Cn2ncc3c(c(C)nn3C)c2=O)c(F)c1` [Example 99], in that order: 123 nM and 95.5 nM.
For `Cc1nn(CC(=O)N[C@@H](C)c2ccc(C(F)(F)F)cn2)c(=O)c2c1c(C)nn2C1CC1` [Example 101, (S)-2-(1-cyclopropyl-3,4-dimethyl-7-oxo-1,7-dihydro-6H-pyrazolo[3,4-d]pyridazin-6-yl)-N-(1-(5-(trifluoromethyl)pyridin-2-yl)ethyl)acetamide], in that order: 398 nM and 282 nM.
For `Cc1nn(CC(=O)N[C@@H](C)c2ccc(C(F)(F)F)cn2)c(=O)c2c1c(C)nn2C` [Example 102, (S)—N-(1-(5-(trifluoromethyl)pyridin-2-yl)ethyl)-2-(1,3,4-trimethyl-7-oxo-1,7-dihydro-6H-pyrazolo[3,4-d]pyridazin-6-yl)acetamide], in that order: 209 nM and 15100 nM.
For the compound `Cc1nn(C(C)C)c2c(=O)n(CC(=O)N[C@@H](C)c3ccc(C(F)(F)F)cn3)ncc12` [Example 103, (S)-2-(1-isopropyl-3-methyl-7-oxo-1,7-dihydro-6H-pyrazolo[3,4-d]pyridazin-6-yl)-N-(1-(5-(trifluoromethyl)pyridin-2-yl)ethyl)acetamide], on human GPR139 receptor [1], the EC50 was 219 nM. In addition, the Ki at human GPR139 receptor [2] was 10000 nM.
For `Cc1nn(C2CC2)c2cnn(CC(=O)NC(C)c3ccc4c(c3)CCCO4)c(=O)c12` (centres unmarked) [Example 104, N-(1-(chroman-6-yl)ethyl)-2-(1-cyclopropyl-3-methyl-4-oxo-1,4-dihydro-5H-pyrazolo[3,4-d]pyridazin-5-yl)acetamide], in that order: 61.7 nM and 794 nM.
For `Cc1nn(CC(=O)NC(C)c2ccc3c(c2)OCCO3)c(=O)c2c1c(C)nn2C1CC1` (centres unmarked) [Example 105, 2-(1-cyclopropyl-3,4-dimethyl-7-oxo-1,7-dihydro-6H-pyrazolo[3,4-d]pyridazin-6-yl)-N-(1-(2,3-dihydrobenzo[b][1,4]dioxin-6-yl)ethyl)acetamide], in that order: 107 nM and 97.7 nM.
For `Cc1nn(C2CC2)c2cnn(CC(=O)NC(C)c3ccc4c(c3)OCCO4)c(=O)c12` (centres unmarked) [Example 106, 2-(1-cyclopropyl-3-methyl-4-oxo-1,4-dihydro-5H-pyrazolo[3,4-d]pyridazin-5-yl)-N-(1-(2,3-dihydrobenzo[b][1,4]dioxin-6-yl)ethyl)acetamide], in that order: 57.5 nM and 2000 nM.
Turning to `Cc1nn(C2CC2)c2cnn(CC(=O)N[C@@H](C)c3ccc(C(F)(F)F)cc3)c(=O)c12` [Example 107, (S)-2-(1-cyclopropyl-3-methyl-4-oxo-1,4-dihydro-5H-pyrazolo[3,4-d]pyridazin-5-yl)-N-(1-(4-(trifluoromethyl)phenyl)ethyl)acetamide], the EC50 at human GPR139 receptor [1] is 42.7 nM. In addition, on human GPR139 receptor [2], the Ki is 245 nM.
For `Cc1ccc([C@H](C)NC(=O)Cn2ncc3c(c(C)nn3C3CC3)c2=O)c(F)c1` [Example 108, (S)-2-(1-cyclopropyl-3-methyl-4-oxo-1,4-dihydro-5H-pyrazolo[3,4-d]pyridazin-5-yl)-N-(1-(2-fluoro-4-methylphenyl)ethyl)acetamide], in that order: 34.7 nM and 75.9 nM.
For `COc1ccc([C@H](C)NC(=O)Cn2ncc3c(c(C)nn3C3CC3)c2=O)cc1` [Example 110, (S)-2-(1-cyclopropyl-3-methyl-4-oxo-1,4-dihydro-5H-pyrazolo[3,4-d]pyridazin-5-yl)-N-(1-(4-methoxyphenyl)ethyl)acetamide], in that order: 69.2 nM and 1660 nM.
For `Cc1ccc([C@H](C)NC(=O)Cn2nc(C)c3c(c(C)nn3C)c2=O)c(F)c1` [Example 111, (S)—N-(1-(2-fluoro-4-methylphenyl)ethyl)-2-(1,3,7-trimethyl-4-oxo-1,4-dihydro-5H-pyrazolo[3,4-d]pyridazin-5-yl)acetamide], in that order: 148 nM and 42.7 nM.
For the compound `Cc1nn(C)c2c(C)nn(CC(=O)N[C@@H](C)c3ccc(OC(F)(F)F)cc3)c(=O)c12` [Example 112, (S)—N-(1-(4-(trifluoromethoxy)phenyl)ethyl)-2-(1,3,7-trimethyl-4-oxo-1,4-dihydro-5H-pyrazolo[3,4-d]pyridazin-5-yl)acetamide], the EC50 on human GPR139 receptor [1] is 617 nM. Also, the Ki on human GPR139 receptor [2] is 263 nM.
On to `Cc1ccc([C@H](C)NC(=O)Cn2nc(C)c3c(c(C)nn3C)c2=O)cc1` [Example 113, (S)—N-(1-(p-tolyl)ethyl)-2-(1,3,7-trimethyl-4-oxo-1,4-dihydro-5H-pyrazolo[3,4-d]pyridazin-5-yl)acetamide], for which the EC50 on human GPR139 receptor [1] is 151 nM. The Ki on human GPR139 receptor [2] was 178 nM.
For `Cc1nn(C)c2c(C)nn(CC(=O)N[C@@H](C)c3ccc(C(F)(F)F)cc3)c(=O)c12` [Example 114, (S)—N-(1-(4-(trifluoromethyl)phenyl)ethyl)-2-(1,3,7-trimethyl-4-oxo-1,4-dihydro-5H-pyrazolo[3,4-d]pyridazin-5-yl)acetamide], in that order: 132 nM and 204 nM.
